Test results published in patent publication US20130338130A1 (priority 2009, published 2013).
Where two headings read alike, the source gives them in different places.

What was measured:
[1] = system: ATCC strain 43300 Staphylococcus aureus; assay: MSM alone, MRSA survival (Example 1); conditions: 5-16% MSM alone, no antibiotic, 24 or 48 hour
Procedure: USP<51> Antimicrobial Effectiveness protocol was used as the template experimental paradigm. […] All concentrations were plated out to the 10^−7 dilutions to ascertain cfu/ml.
Material was calculated on a 10 ml volume.
All tubes were inoculated with a dilution of MRSA giving a final level of colony forming units of 2.0×10^5/ml (Log=5.23). The tubes were incubated at 25° C. and mixed periodically. Plating was done at 24 and 48 hours. Each condition was plated by diluting 1 ml of growth material into 9 ml of MLB diluent broth. This mixture was serial diluted down to 10^−7, and 1 ml placed in a sterile petri dish at each dilution point. 20 mls of TSA was added to each dilution, swirled and allowed to solidify. All dilutions were placed in a 35° C. incubator for 24 hours. Bacterial colonies on each plate were counted and colony counts changed into log format. A positive and negative control was ascertained.

[2] = system: ATCC strain 43300 Staphylococcus aureus; assay: MRSA survival in MSM, DMSO and oxacillin, 48 hours (Example 2)
Procedure: (§1) All concentrations were plated out to the 10^−7 dilutions to ascertain cfu/ml.
Material was calculated on a 10 ml volume. […] Sterile DMSO was added to appropriate tubes. Sterile oxacillin was added to appropriate tubes at 300 microliters from a 30 mg/10 ml concentration giving it a final concentration of 6 μg/ml. Control conditions were Lactose Broth inoculated with ATCC strain 43300 Staphylococcus aureus with and without 6 μg/ml oxacillin, as well as uninoculated negative controls to show no signs of contamination.
Appropriate tubes were inoculated at a dilution of ATCC strain 43300 Staphylococcus aureus giving a final concentration of colony forming units of 3.15×10^7/ml (Log=7.49). The tubes were incubated at 25° C. and mixed periodically. Plating was done at 48 hours. […] They were serial diluted down to 10^−7 with 1 ml placed in a sterile petri dish at each dilution point. Then 20 mls of TSA was added to each dilution and swirled and allowed to solidify. All dilutions were placed in a 35° C. incubator for 24 hours. Plates were counted and colony counts changed into log format. A positive and negative control was ascertained.

[3] = system: ATCC strain 43300 Staphylococcus aureus; assay: MRSA survival in MSM and oxacillin, simulated course of treatment (Example 3); conditions: for survival (Log cfu/ml): 6 μg/ml oxacillin added daily + MSM (% in label)
Procedure: After 24 hours, another 6 μg/ml oxacillin was added to the incubations, bringing the total amount of oxacillin added to 12 μg/ml. […] This experimental paradigm simulates the repeated application of antibiotic that a subject would receive over a course of treatment.
USP<51> Antimicrobial Effectiveness protocol was used as the template experimental paradigm. […] All concentrations were plated out to the 10^−7 dilutions to ascertain cfu/ml. […] This concentration is the industry standard for determining MRSA resistance in clinical applications. An additional 6 μg/ml oxacillin was added daily.
Material was calculated on a 10 ml volume. Sterile oxacillin was added to each experimental condition daily at 300 μl from a 30 mg/10 ml concentration giving it a final concentration of 6 μg/ml.
All tubes were inoculated at a dilution of MRSA giving a final concentration of colony forming units of 9.14×10^5/ml (Log=5.96). The tubes were incubated at 25° C. and mixed periodically. Plating was done at 48 hours and 7 days. […] These were serial diluted down to 10^−7 with 1 ml placed in a sterile petri dish at each dilution point. 20 mls of TSA was added to each dilution and swirled and allowed to solidify. All dilutions were placed in a 35° C. incubator for 24 hours. Plates were counted and colony counts changed into log format. A positive and negative control was ascertained.

[4] = system: ATCC strain 43300 Staphylococcus aureus; conditions: 24 hours
Procedure: as §1
ATCC strain 43300 Staphylococcus aureus was streaked out for isolations and 25 clones were picked and diluted to a McFarland standard of one. The estimated value was then taken to inoculate tubes containing growth media and 12, 30 or 60 μg/ml methicillin or oxacillin with around 10^−7 cfu/tube.
Material was calculated on a 10 ml volume. Sterile oxacillin or methicillin was added to each experimental condition to a final concentration of 12, 30 or 60 μg/ml antibiotic.
All tubes were then inoculated with a dilution of the selected ATCC strain 43300 Staphylococcus aureus clone giving a final level of colony forming units of 9.4×10^7/ml (log=7.97). The tubes were incubated at 25° C. and mixed periodically. […] Plating was done at 24 hours. Each condition was plated by diluting 1 ml of growth material into 9 ml of MLB diluent broth. This mixture was serial diluted down to 10^−7, and 1 ml placed in a sterile petri dish at each dilution point. 20 mls of TSA was added to each dilution, swirled and allowed to solidify. All dilutions were placed in a 35° C. incubator for 24 hours. Bacterial colonies on each plate were counted and colony counts changed into log format. A positive and negative control was ascertained.

SMILES: CS(C)(=O)=O [MSM, Methylsulfonylmethane]
- effect on survival [1]: none of the concentrations of MSM tested had any effect on the survival
- log reduction in cfu/ml ([2]; MA condition (6 μg/ml oxacillin + MSM)): 2.0 log
- maximum log reduction in cfu/ml ([2]; MA condition, 10-16% MSM): 2.9 log
- log reduction in cfu/ml ([2]; MDA condition (6 μg/ml oxacillin + MSM + 1% DMSO), listed as 9% MSM): 1.6 log
- log reduction in cfu/ml ([2]; MDA condition (6 μg/ml oxacillin + MSM + 1% DMSO), listed as 10-16% MSM): 2.0 log
- survival (Log cfu/ml) ([3]; 48 hours, inoculum Log=5.96, listed as 5% MSM): 7.0 Log cfu/ml
- survival (Log cfu/ml) ([3]; 48 hours, inoculum Log=5.96, listed as 8% MSM): 4.0 Log cfu/ml
- survival (Log cfu/ml) ([3]; 48 hours, inoculum Log=5.96, listed as 10% MSM): 4.6 Log cfu/ml
- survival (Log cfu/ml) ([3]; 48 hours, inoculum Log=5.96, listed as 12% MSM): 3.8 Log cfu/ml
- survival (Log cfu/ml) ([3]; 48 hours, inoculum Log=5.96, listed as 13% MSM): 3.8 Log cfu/ml
- survival (Log cfu/ml) ([3]; 48 hours, inoculum Log=5.96, listed as 14% MSM): 4.0 Log cfu/ml
- survival (Log cfu/ml) ([3]; 48 hours, inoculum Log=5.96, listed as 15% MSM): 4.1 Log cfu/ml
- survival (Log cfu/ml) ([3]; 48 hours, inoculum Log=5.96, listed as 16% MSM): 5.3 Log cfu/ml
- survival (Log cfu/ml) ([3]; 7 days, listed as 5% MSM): 7.9 Log cfu/ml
- survival (Log cfu/ml) ([3]; 7 days, listed as 8% MSM): 7.6 Log cfu/ml
- survival (Log cfu/ml) ([3]; 7 days, listed as 10% MSM): 7.2 Log cfu/ml
- survival (Log cfu/ml) ([3]; 7 days, listed as 12% MSM): 7.1 Log cfu/ml
- survival (Log cfu/ml) ([3]; 7 days, listed as 13% MSM): 7.2 Log cfu/ml
- survival (Log cfu/ml) ([3]; 7 days, listed as 14% MSM): 7.0 Log cfu/ml
- survival (Log cfu/ml) ([3]; 7 days, listed as 15% MSM): 6.9 Log cfu/ml
- survival (Log cfu/ml) ([3]; 7 days, listed as 16% MSM): 1.0 Log cfu/ml
- surviving bacteria ([3]; 6 μg/ml oxacillin added each day, day 7): no surviving bacteria
- survival (Log cfu/ml) ([4]; 12 μg/ml methicillin + MSM (% in label), inoculum log=7.97, listed as 5% MSM): 5.43 Log cfu/ml
- survival (Log cfu/ml) ([4]; 12 μg/ml methicillin + MSM (% in label), inoculum log=7.97, listed as 6% MSM): 5.2 Log cfu/ml
- survival (Log cfu/ml) ([4]; 12 μg/ml methicillin + MSM (% in label), inoculum log=7.97, listed as 7% MSM): 5.46 Log cfu/ml
- survival (Log cfu/ml) ([4]; 12 μg/ml methicillin + MSM (% in label), inoculum log=7.97, listed as 8% MSM): 5.0 Log cfu/ml
- survival (Log cfu/ml) ([4]; 12 μg/ml methicillin + MSM (% in label), inoculum log=7.97, listed as 9% MSM): 4.99 Log cfu/ml
- survival (Log cfu/ml) ([4]; 12 μg/ml methicillin + MSM (% in label), inoculum log=7.97, listed as 10% MSM): 4.8 Log cfu/ml
- survival (Log cfu/ml) ([4]; 12 μg/ml methicillin + MSM (% in label), inoculum log=7.97, listed as 11% MSM): 4.87 Log cfu/ml
- survival (Log cfu/ml) ([4]; 12 μg/ml methicillin + MSM (% in label), inoculum log=7.97, listed as 12% MSM): 4.89 Log cfu/ml
- survival (Log cfu/ml) ([4]; 12 μg/ml methicillin + MSM (% in label), inoculum log=7.97, listed as 13% MSM): 4.77 Log cfu/ml
- survival (Log cfu/ml) ([4]; 12 μg/ml methicillin + MSM (% in label), inoculum log=7.97, listed as 14% MSM): 4.7 Log cfu/ml
- survival (Log cfu/ml) ([4]; 12 μg/ml oxacillin + MSM (% in label), listed as 5% MSM): 5.28 Log cfu/ml
- survival (Log cfu/ml) ([4]; 12 μg/ml oxacillin + MSM (% in label), listed as 6% MSM): 5.26 Log cfu/ml
- survival (Log cfu/ml) ([4]; 12 μg/ml oxacillin + MSM (% in label), listed as 7% MSM): 5.18 Log cfu/ml
- survival (Log cfu/ml) ([4]; 12 μg/ml oxacillin + MSM (% in label), listed as 8% MSM): 5.18 Log cfu/ml
- survival (Log cfu/ml) ([4]; 12 μg/ml oxacillin + MSM (% in label), listed as 9% MSM): 5.16 Log cfu/ml
- survival (Log cfu/ml) ([4]; 12 μg/ml oxacillin + MSM (% in label), listed as 10% MSM): 4.96 Log cfu/ml
- survival (Log cfu/ml) ([4]; 12 μg/ml oxacillin + MSM (% in label), listed as 11% MSM): 4.8 Log cfu/ml
- survival (Log cfu/ml) ([4]; 12 μg/ml oxacillin + MSM (% in label), listed as 12% MSM): 4.8 Log cfu/ml
- survival (Log cfu/ml) ([4]; 12 μg/ml oxacillin + MSM (% in label), listed as 13% MSM): 4.9 Log cfu/ml
- survival (Log cfu/ml) ([4]; 12 μg/ml oxacillin + MSM (% in label), listed as 14% MSM): 4.88 Log cfu/ml
- survival (Log cfu/ml) ([4]; 30 μg/ml methicillin + MSM (% in label), listed as 9% MSM): 5.07 Log cfu/ml
- survival (Log cfu/ml) ([4]; 30 μg/ml methicillin + MSM (% in label), listed as 10% MSM): 4.8 Log cfu/ml
- survival (Log cfu/ml) ([4]; 30 μg/ml methicillin + MSM (% in label), listed as 11% MSM): 4.8 Log cfu/ml
- survival (Log cfu/ml) ([4]; 30 μg/ml methicillin + MSM (% in label), listed as 12% MSM): 4.7 Log cfu/ml
- survival (Log cfu/ml) ([4]; 30 μg/ml methicillin + MSM (% in label), listed as 13% MSM): 4.7 Log cfu/ml
- survival (Log cfu/ml) ([4]; 30 μg/ml methicillin + MSM (% in label), listed as 14% MSM): 4.6 Log cfu/ml
- survival (Log cfu/ml) ([4]; 30 μg/ml methicillin + MSM (% in label), listed as 15% MSM): 4.54 Log cfu/ml
- survival (Log cfu/ml) ([4]; 30 μg/ml methicillin + MSM (% in label), listed as 16% MSM): 4.47 Log cfu/ml
- survival (Log cfu/ml) ([4]; 30 μg/ml oxacillin + MSM (% in label), listed as 9% MSM): 5.02 Log cfu/ml
- survival (Log cfu/ml) ([4]; 30 μg/ml oxacillin + MSM (% in label), listed as 10% MSM): 4.99 Log cfu/ml
- survival (Log cfu/ml) ([4]; 30 μg/ml oxacillin + MSM (% in label), listed as 11% MSM): 4.94 Log cfu/ml
- survival (Log cfu/ml) ([4]; 30 μg/ml oxacillin + MSM (% in label), listed as 12% MSM): 4.87 Log cfu/ml
- survival (Log cfu/ml) ([4]; 30 μg/ml oxacillin + MSM (% in label), listed as 13% MSM): 4.9 Log cfu/ml
- survival (Log cfu/ml) ([4]; 30 μg/ml oxacillin + MSM (% in label), listed as 14% MSM): 4.82 Log cfu/ml
